Assay results published in US10111897B2, “Compositions and methods for treating cancer with JAK2 activity” (Duke University, priority 2013, dated 2018).

How the values were obtained:
[1] = tested on: HEL92.1.7 cells; assay: GI50 assay (Cell Titer Glo viability); assay type: cell-based, human; details: for sensitivity of parental and engineered Ras effector-activated cells (viability and apoptosis): HEL92.1.7 ORF-expressing derivatives, apoptosis at 48 hours; for resensitization of Ras-expressing cells to INCB, dual ERK and Akt inhibition: INCB with both VX-11E (2 μM) and MK-2206 (10 μM)
Procedure: (§1) Cells were seeded into 6-well plates and infected with the desired ORF activating allele or control vector. Lentiviruses were produced and applied as previously described (42). Following two days of puromycin selection (2 μg/ml), infected cells were seeded into 96-well plates at 5,000 cells/well.
(§2) To generate […] curves, cells were treated with vehicle (DMSO) or an eight-log serial dilution of drug to yield final concentrations of […]. Each treatment condition was represented by at least three replicates. Three to four days after drug addition, cell viability was measured using Cell Titer Glo® (Promega). Relative viability was then calculated by normalizing luminescence values for each treatment condition to control treated wells.
(§3) To generate GI50 curves for drug combinations, slight modifications are made. Primary drug was applied and diluted as above while the second drug was kept at a constant concentration across all wells except the DMSO-only condition. Viability for all primary drug dilutions was then calculated relative to luminescence values from the secondary drug-only condition. Dose-response curves were fit using Graph pad/Prism 6 software.

[2] = tested on: Set2 cells; assay: GI50 assay (Cell Titer Glo viability); assay type: cell-based, human; details: for sensitivity of parental and engineered Ras effector-activated cells (relative proliferation): Set2 ORF-expressing derivatives; for sensitization of resistant and parental Set2 cells to JAK inhibitors, co-inhibition of Akt and ERK pathways: MK-2206 plus AZD-6244 (2 μM) plus respective JAK inhibitor
Procedure: as §1, §2, §3

[3] = JAK inhibitor combined with ABT-737; cited from earlier work
[4] = tested on: BAD; assay: BAD phosphorylation immunoblot in HEL92.1.7 derivatives; assay type: cell-based, human; details: Ras (G12V)-transduced HEL92.1.7, 6 hours of treatment
Procedure: FIG. 10. BAD activity, governed by phosphorylation status at Ser 112 and 136, dictates drug sensitivity and induction of apoptosis in both the drug-sensitive and resistant state. (A-C) After 6 hours of treatment with the specified drugs, protein lysates were prepared from either myr-Akt-transduced HEL92.1.7 (A), Ras (G12V)-transduced HEL92.1.7 (B), Set2-Parental, or Set2-CYTR cells (C) and immunoblotted with the indicated antibodies. Blots are representative of three replicate experiments. […] (E, F) HEL92.1.7 derivatives stably expressing the indicated ORFs were transduced with a second ORF expressing either a second control vector or BAD2SA. (E) Twenty-four hours after selection, cells were stained with 7AAD and Annexin V to measure the induction of apoptosis. Error bars indicate SD of three replicate experiments.
Immunoblotting was performed as previously described (42) and membranes were probed with primary antibodies (1:1000 dilution) recognizing p-STAT5, STAT5, p-STAT3, STAT3, BAD, p-BAD Ser112, p-BAD Ser136, p-Akt (Thr308), Akt, p-ERK1/2 (Thr202/Tyr204), ERK1/2, Pim1, BCL-XL, BCL-2, MCL-1, Bim, Bax, Bak, NaATPase, and β-Actin. All antibodies were purchased from Cell Signaling Technology.

[5] = tested on: multiple JAK2^V617F cell lines; details: parental JAK2^V617F cell lines (HEL92.1.7 72 h, Set2 24 h)
Text: Error bars indicate SD of three replicate experiments. (B) Digitonin-permeabilized HEL92.1.7 cells transduced with the indicated constructs were stained with the mitochondrial potential-sensitive JC1 dye and treated with a panel of BH3 peptides. Percent depolarization is shown as the area under the curve (AUC) normalized to positive control fully depolarized mitochondria (FCCP). DMSO serves as the negative control. Data shown are representative of three independent experiments for each cell line derivative. (C) Same as in (B) except in this case the indicated JAK2^V617F positive cell lines were profiled to query their apoptotic dependencies. […] Blots are representative of three replicate experiments. (E) Twenty-four hours after transduction with the indicated ORFs, HMLE and HEL92.1.7 cells were stained with 7AAD and Annexin V to measure induction of apoptosis. Error bars indicate SD of three replicate experiments.
Cells were seeded in six-well plates and treated with either the indicated amount of drug or vehicle (DMSO). Cells were incubated for the indicated time, washed twice with ice-cold PBS, and resuspended in IX Annexin V binding buffer (10 mM HEPES, 140 mM NaCl, 2.5 mM CaCl2; BD Biosciences). Surface exposure of phosphatidylserine was measured using APC-conjugated Annexin V (BD Biosciences). […] Experiments were analyzed at 20,000 counts/sample using BD FACSVantage SE. […]

[6] = patients suffering from MPNs; cited from earlier work

SMILES	sensitivity of parental and engineered Ras effector-activated cells (viability and apoptosis) [1]	sensitivity of parental and engineered Ras effector-activated cells (relative proliferation) [2]	sensitization of resistant and parental Set2 cells to JAK inhibitors, co-inhibition of Akt and ERK pathways [2]	resensitization of Ras-expressing cells to INCB, dual ERK and Akt inhibition [1]	other results
CC1(C)CCC(CN2CCN(c3ccc(C(=O)NS(=O)(=O)c4ccc(NCC5CCOCC5)c([N+](=O)[O-])c4)c(Oc4cnc5[nH]ccc5c4)c3)CC2)=C(c2ccc(Cl)cc2)C1 [ABT-199]	insensitive	insensitive	–	–	–
Cn1cnc2c(F)c(Nc3ccc(Br)cc3Cl)c(C(=O)NOCCO)cc21 [AZD-6244]	–	–	further sensitized	–	–
CN(C)CC[C@H](CSc1ccccc1)Nc1ccc(S(=O)(=O)NC(=O)c2ccc(N3CCN(Cc4ccccc4-c4ccc(Cl)cc4)CC3)cc2)cc1[N+](=O)[O-] [ABT-737]	sensitive	sensitive	–	–	sensitivity of independently evolved JAK inhibitor-resistant cells compared to matched parental cells ([2]; Set2-INCBR and Set2-CYTR vs Set2-Parental): equally sensitive; responses relative to JAK inhibitor monotherapy [3]: improved responses
Cc1cnc(Nc2ccc(F)cc2Cl)nc1-c1c[nH]c(C(=O)N[C@H](CO)c2cccc(Cl)c2)c1 [VX-11E]	–	–	–	resensitized	–
NC1(c2ccc(-c3nc4ccn5c(=O)[nH]nc5c4cc3-c3ccccc3)cc2)CCC1 [MK-2206]	–	–	further sensitized	resensitized	resensitization of Akt-expressing cells to INCB ([1]; INCB plus second drug at constant concentration (MK-2206 10 μM; BEZ-235 0.2 μM)): fully resensitized; resensitization of Set2-CYTR and Set2-INCBR cells to JAK inhibitors ([2]; Akt inhibition with MK-2206 plus respective JAK inhibitor, compared with parental GI50 values): resensitized
N#CC[C@H](C1CCCC1)n1cc(-c2ncnc3[nH]ccc23)cn1 [INCB]	–	–	–	–	BAD phosphorylation at Ser 112 and 136 in Ras-expressing cells [4]: remained phosphorylated; induction of apoptosis (Annexin-V staining) [5]: induces apoptosis; patients with transient reduction of spleen size and alleviation of some symptoms [6]: about 50 % of patients
